Where only a bound is given, the exact number is not on record here.

This assay deals with T1, human LMPTP-A (Homo sapiens, UniProt P24666).
T1 sequence (P24666 1-158): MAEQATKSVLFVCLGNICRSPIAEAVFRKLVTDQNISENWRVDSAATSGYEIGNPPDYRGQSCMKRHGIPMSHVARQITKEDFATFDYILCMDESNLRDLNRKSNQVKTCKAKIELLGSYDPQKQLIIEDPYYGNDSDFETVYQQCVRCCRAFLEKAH
Kind of assay: Enzyme Assay of Inhibition of LMPTP-A. The class given is biochemical. Conditions: phosphatase assay, OMFP or pNPP substrate, 50 mM Bis-Tris pH 6.0, 37° C. On the procedure:
Example B-1: Enzyme Assay of Inhibition of LMPTP-A
Phosphatase assays were performed in buffer containing 50 mM Bis-Tris, pH 6.0, 1 mM DTT and 0.01% Triton X-100 at 37° C. For assays conducted with 3-O-methylfluorescein phosphate (OMFP) as substrate, fluorescence was monitored continuously at λex=485 and λem=525 nm. For assays conducted with para-nitrophenylphosphate (pNPP) as substrate, the reaction was stopped by addition of 2× reaction volume of 1 M NaOH, and absorbance was measured at 405 nm. IC50 values of compounds disclosed herein were determined from plots of inhibitor concentration versus percentage of enzyme activity. For inhibitor selectivity assays, each PTP was incubated with either 0.4 mM OMFP or 5 mM pNPP in the presence of 40 μM compound or DMSO. […] For the inhibitor reversibility assay, 50 nM human LMPTP-A was pre-incubated with 10 μM of compound disclosed herein or DMSO for 5 min. The enzyme was diluted 100× in phosphatase assay buffer containing 0.4 mM OMFP and fluorescence was measured at the indicated time points.
The IC50 is the concentration that gives 50% inhibition. High values mean weaker potency, low ones greater potency. For “3-[(3,5-dichloro(4-pyridyl))methyl]-8-(2-5,6,7,8-tetrahydronaphthyl)-3-hydropurine-6-ylamine”, the IC50 was below 1000 nM.
In turn, “3-[(3,5-diiodo(4-pyridyl))methyl]-8-(2-methylphenyl)-3-hydropurine-6-ylamine” had a half-inhibitory concentration (IC50) below 1000 nM.
The figure for “3-[(4-iodo-2-methoxy(3-pyridyl))methyl]-8-(2-methylphenyl)-3-hydropurine-6-ylamine” is below 1000 nM; for `Cc1ccccc1-c1nc2c(N)nc(C)n(Cc3c(Cl)ccnc3Cl)c-2n1` [3-[(2,4-dichloro(3-pyridyl))methyl]-2-methyl-8-(2-methylphenyl)-3-hydropurine-6-ylamine] it is 1000 to 20000 nM; for `Cc1cc(-c2nc3c(N)ncn(Cc4c(Cl)ccnc4Cl)c-3n2)n(C)n1` [3-[(2,4-dichloro(3-pyridyl))methyl]-8-(1,3-dimethylpyrazol-5-yl)-3-hydropurine-6-ylamine] it is below 1000 nM.
With `Nc1ncn(Cc2c(Cl)ccnc2Cl)c2nc(-c3cc(F)ccc3F)nc1-2` [3-[(2,4-dichloro(3-pyridyl))methyl]-8-(2,5-difluorophenyl)-3-hydropurine-6-ylamine], the IC50 is below 1000 nM.
Take `Nc1ncn(Cc2c(Cl)ccnc2Cl)c2nc(-c3ccc4c(c3)CCCC4)nc1-2` [3-[(2,4-dichloro(3-pyridyl))methyl]-8-(2-5,6,7,8-tetrahydronaphthyl)-3-hydropurine-6-ylamine]: the IC50 is below 1000 nM.
Take `Cc1ccccc1-c1nc2c(N)ncn(Cc3c(Cl)ccnc3Cl)c-2n1` [3-[(2,4-dichloro(3-pyridyl))methyl]-8-(2-methylphenyl)-3-hydropurine-6-ylamine]: the concentration for half-maximal inhibition (IC50) is below 1000 nM.
For `Nc1ncn(Cc2c(Cl)ccnc2Cl)c2nc(Cc3ccc(F)cc3)nc1-2` [3-[(2,4-dichloro(3-pyridyl))methyl]-8-[(4-fluorophenyl)methyl]-3-hydropurine-6-ylamine], the IC50 is below 1000 nM.
The figure for `Nc1ncn(Cc2c(Cl)ccnc2Cl)c2nc(-c3ccccc3)nc1-2` [3-[(2,4-dichloro(3-pyridyl))methyl]-8-phenyl-3-hydropurine-6-ylamine] is below 1000 nM; for `COc1ccnc(OC)c1Cn1cnc(N)c2nc(-c3ccccc3C)nc1-2` [3-[(2,4-dimethoxy(3-pyridyl))methyl]-8-(2-methylphenyl)-3-hydropurine-6-ylamine] it is below 1000 nM; for `Cc1nc(C)c(Cn2cnc(N)c3nc(-c4ccccc4C)nc2-3)s1` [3-[(2,4-dimethyl(1,3-thiazol-5-yl))methyl]-8-(2-methylphenyl)-3-hydropurine-6-ylamine] it is below 1000 nM.
On to `Cc1ccccc1-c1nc2c(N)ncn(Cc3c(C)ccnc3C)c-2n1` [3-[(2,4-dimethyl(3-pyridyl))methyl]-8-(2-methylphenyl)-3-hydropurine-6-ylamine], for which the IC50 is below 1000 nM.
On to `Cc1ccnc(C)c1Cn1cnc(N)c2nc(-c3ccccc3)nc1-2` [3-[(2,4-dimethyl(3-pyridyl))methyl]-8-phenyl-3-hydropurine-6-ylamine], for which the IC50 was below 1000 nM.
In turn, `Cc1ccccc1-c1nc2c(N)ncn(Cc3c(Cl)nc(N)nc3Cl)c-2n1` [3-[(2-amino-4,6-dichloropyrimidin-5-yl)methyl]-8-(2-methylphenyl)-3-hydropurine-6-ylamine] registered an IC50 below 1000 nM.
For the compound `Cc1ccccc1-c1nc2c(N)ncn(Cc3cccnc3C)c-2n1` [3-[(2-methyl(3-pyridyl))methyl]-8-(2-methylphenyl)-3-hydropurine-6-ylamine], the IC50 was below 1000 nM.
For `Cc1ccccc1-c1nc2c(N)nc(C)n(Cc3c(Br)cncc3Br)c-2n1` [3-[(3,5-dibromo(4-pyridyl))methyl]-2-methyl-8-(2-methylphenyl)-3-hydropurine-6-ylamine], the IC50 lay in the range of 1000 to 20000 nM.
As for `Nc1ncn(Cc2c(Br)cncc2Br)c2nc(-c3ccc4c(c3)CCCC4)nc1-2` [3-[(3,5-dibromo(4-pyridyl))methyl]-8-(2-5,6,7,8-tetrahydronaphthyl)-3-hydropurine-6-ylamine], the IC50 is below 1000 nM.
For `Cc1ccccc1-c1nc2c(N)ncn(Cc3c(Br)cncc3Br)c-2n1` [3-[(3,5-dibromo(4-pyridyl))methyl]-8-(2-methylphenyl)-3-hydropurine-6-ylamine], the IC50 is below 1000 nM.
Then `Nc1ncn(Cc2c(Br)cncc2Br)c2nc(-c3cccc4c3CCCC4)nc1-2` [3-[(3,5-dibromo(4-pyridyl))methyl]-8-(5,6,7,8-tetrahydronaphthyl)-3-hydropurine-6-ylamine], with above 20000 nM.
For `Nc1ncn(Cc2c(Br)cncc2Br)c2nc(-c3cnn4ccccc34)nc1-2` [3-[(3,5-dibromo(4-pyridyl))methyl]-8-(8-hydropyrazolo[1,5-a]pyridin-3-yl)-3-hydropurine-6-ylamine], the IC50 is below 1000 nM.
As to `Nc1ncn(Cc2c(Br)cncc2Br)c2nc(-c3ccccc3)nc1-2` [3-[(3,5-dibromo(4-pyridyl))methyl]-8-phenyl-3-hydropurine-6-ylamine], the IC50 was below 1000 nM.
Regarding `Cc1ccccc1-c1nc2c(N)nc(C)n(Cc3c(Cl)cncc3Cl)c-2n1` [3-[(3,5-dichloro(4-pyridyl))methyl]-2-methyl-8-(2-methylphenyl)-3-hydropurine-6-ylamine], the IC50 is 1000 to 20000 nM.
With `Cc1cc(-c2nc3c(N)ncn(Cc4c(Cl)cncc4Cl)c-3n2)n(C)n1` [3-[(3,5-dichloro(4-pyridyl))methyl]-8-(1,3-dimethylpyrazol-5-yl)-3-hydropurine-6-ylamine], the IC50 was below 1000 nM.
On to `Cn1cnc2cc(-c3nc4c(N)ncn(Cc5c(Cl)cncc5Cl)c-4n3)ccc21` [3-[(3,5-dichloro(4-pyridyl))methyl]-8-(1-methylbenzimidazol-5-yl)-3-hydropurine-6-ylamine], for which the IC50 was below 1000 nM.
Turning to `Cn1cnc2ccc(-c3nc4c(N)ncn(Cc5c(Cl)cncc5Cl)c-4n3)cc21` [3-[(3,5-dichloro(4-pyridyl))methyl]-8-(1-methylbenzimidazol-6-yl)-3-hydropurine-6-ylamine], the IC50 is below 1000 nM.
The compound `Nc1ncn(Cc2c(Cl)cncc2Cl)c2nc(-c3cc(F)ccc3F)nc1-2` [3-[(3,5-dichloro(4-pyridyl))methyl]-8-(2,5-difluorophenyl)-3-hydropurine-6-ylamine] had an IC50 below 1000 nM.
For `Nc1ncn(Cc2c(Cl)cncc2Cl)c2nc(-c3cccc4c3CCCC4)nc1-2` [3-[(3,5-dichloro(4-pyridyl))methyl]-8-(5,6,7,8-tetrahydronaphthyl)-3-hydropurine-6-ylamine], the IC50 is above 20000 nM.
Turning to `Nc1ncn(Cc2c(Cl)cncc2Cl)c2nc(-c3cnn4ccccc34)nc1-2` [3-[(3,5-dichloro(4-pyridyl))methyl]-8-(8-hydropyrazolo[1,5-a]pyridin-3-yl)-3-hydropurine-6-ylamine], the IC50 was below 1000 nM.
On to `Nc1ncn(Cc2c(Cl)cncc2Cl)c2nc(-c3ccn4nccc4c3)nc1-2` [3-[(3,5-dichloro(4-pyridyl))methyl]-8-(8-hydropyrazolo[1,5-a]pyridin-5-yl)-3-hydropurine-6-ylamine], for which the half-inhibitory concentration (IC50) was below 1000 nM.
`Nc1ncn(Cc2c(Cl)cncc2Cl)c2nc(-c3cnccc3C(F)(F)F)nc1-2` [3-[(3,5-dichloro(4-pyridyl))methyl]-8-[4-(trifluoromethyl)(3-pyridyl)]-3-hydropurine-6-ylamine]: the IC50 was below 1000 nM.
Then `Nc1ncn(Cc2c(Cl)cncc2Cl)c2nc(Cc3ccc(F)cc3)nc1-2` [3-[(3,5-dichloro(4-pyridyl))methyl]-8-[(4-fluorophenyl)methyl]-3-hydropurine-6-ylamine], with below 1000 nM.
Then `COc1cncc(OC)c1Cn1cnc(N)c2nc(-c3ccccc3C)nc1-2` [3-[(3,5-dimethoxy(4-pyridyl))methyl]-8-(2-methylphenyl)-3-hydropurine-6-ylamine], with below 1000 nM; and `Cc1ccccc1-c1nc2c(N)ncn(Cc3sccc3Cl)c-2n1` [3-[(3-chloro(2-thienyl))methyl]-8-(2-methylphenyl)-3-hydropurine-6-ylamine], with below 1000 nM.
Consider `Nc1ncn(Cc2sccc2Cl)c2nc(-c3ccccc3)nc1-2` [3-[(3-chloro(2-thienyl))methyl]-8-phenyl-3-hydropurine-6-ylamine], for which the 50% inhibitory concentration (IC50) was below 1000 nM.
`Cc1ccccc1-c1nc2c(N)ncn(Cc3ccncc3Cl)c-2n1` [3-[(3-chloro(4-pyridyl))methyl]-8-(2-methylphenyl)-3-hydropurine-6-ylamine] displayed a concentration for half-maximal inhibition (IC50) below 1000 nM.
Turning to `Cc1ccccc1-c1nc2c(N)ncn(Cc3ccncc3F)c-2n1` [3-[(3-fluoro(4-pyridyl))methyl]-8-(2-methylphenyl)-3-hydropurine-6-ylamine], the IC50 is below 1000 nM.
The figure for `Cc1ccccc1-c1nc2c(N)ncn(Cc3c(Cl)ncnc3Cl)c-2n1` [3-[(4,6-dichloropyrimidin-5-yl)methyl]-8-(2-methylphenyl)-3-hydropurine-6-ylamine] is below 1000 nM; for `Nc1ncn(Cc2c(Cl)ncnc2Cl)c2nc(-c3ccccc3)nc1-2` [3-[(4,6-dichloropyrimidin-5-yl)methyl]-8-phenyl-3-hydropurine-6-ylamine] it is below 1000 nM; for `Cc1ccccc1-c1nc2c(N)nc(C)n(Cc3c(Br)cnn3C)c-2n1` [3-[(4-bromo-1-methylpyrazol-5-yl)methyl]-2-methyl-8-(2-methylphenyl)-3-hydropurine-6-ylamine] it is 1000 to 20000 nM.

For the origin of these results see patent US20230102520A1, “INHIBITORS OF LOW MOLECULAR WEIGHT PROTEIN TYROSINE PHOSPHATASE (LMPTP) AND USES THEREOF” (Sanford Burnham Prebys Medical Discovery Institute, priority 2019, published 2023).
